“Also recorded” adds a separate entry of the source.
Legend:
Assay type in all cases: cell-based, human
T47D cells = assay: Translation and degradation assays (3H-phenylalanine); conditions: control cells, 20-hour treatment
Protocol: FIGS. 4A-4F: Transient induction of PSMD2 shRNA is sufficient to promote resistance to proteasome inhibition. (FIG. 4A) Schematic representation of the experimental design. (FIG. 4B) T471) cells harboring a doxycycline-inducible PSMD2 shRNA were grown in the presence of in/nil doxycycline for 48 hours. Cells were then collected, washed and plated in the absence of doxycycline for 24 hours prior to exposure to increasing concentrations of bortezomib. Relative cell numbers were measured 3 days later. […] The proteasome complex levels and activity of the 20S proteasome were assessed by native gel electrophoresis. Loading controls were analyzed by immunoblot for PSMD2 and tubulin following SDS-PAGE. […] (FIG. 4E) The rate of degradation was analyzed in cells with reduced levels of PSMD2 (green bars) versus control (red bars) in the presence or absence of 10 nM bortezomib (treatment for 20 hours) by monitoring the release of H3-Phe in pre-labeled cells. (FIG. 4F) Rate of total protein synthesis was determined in cells with reduced levels of PSMD2 (green bars) versus control (red bars) in the presence or absence of 10 nM bortezomib (treatment for 20 hours) by measuring the rate of incorporation of 3H-phenylalanine for 1 hour. **p<0.01***p<0.001 […]

HepG2 cells = assay: RNA-seq gene expression profiling, PSMD2 knockdown and control cells; conditions: control cells
Protocol: FIGS. 3A-3E: Inhibition of bortezomib-mediated transcriptional responses in PSMD2 knockdown cells. RNA-seq gene expression profiling was conducted on cells that harbor two different shRNAs targeting PSMD2 (PSMD2-1, PSMD2-2) and on control cells (shLacZ). The effects of reducing PSMD2 levels on gene expression were highly correlated in both basal conditions (Pearson's r=0.99) and following bortezomib treatment (Pearson's r=0.94). […] Enrichment was calculated for the indicated gene sets and is presented as a normalized enrichment score (NES). […]
Gene expression analysis—RNA was extracted from triplicate samples and RNA libraries were prepared for sequencing by NEBNext Ultra RNA Library Prep Kit for Illumina (New England BioLabs, Ipswich, Mass.), including the removal of large and small RNA, synthesis of cDNA, and construction of cDNA libraries. […] Libraries were sequenced using Illumina HiSeq 2500, with paired-end 100 bp reads, Paired-end reads were aligned to UCSC human transcriptome 19 (hg19) using TopHat (Bowtie v2.0.9). Alignment quality and read distribute was assessed via SAMtools (v0.1.19) (Li et al., 2009). […] RNA sequencing data have been deposited in the NCBI Sequence Read Archive under accession number: PRJNA281613, […]

MCF7 and HEK293 cells = assay: Cell viability with glucose or galactose as the carbon source; conditions: 10 mM glucose or 10 mM galactose
Protocol: Cells were treated with increasing concentrations of elesclomol in the presence of either Glucose or Galactose as the carbon source (FIG. 40A). The presence of Galactose will induce a mitochondrial dependent metabolism (FIGS. 40B-40C, Gohil et al., Nature Biotechnology 28, 249-255 (2010)).
The sensitivity of cells to different chemical isoforms of elesclomol was also assessed. […] Removing even one substantially impairs the ability of the molecule to induce toxicity (FIG. 41B).
Cell culture methods—147D, Lo19S T47D, K562 and 293T-HS cells were cultured in RPMI-1640 medium supplemented with 10% fetal bovine serum; HEK293, HEK293T and MCF-7 cells were cultured in Dulbecco's modified Eagle's medium supplemented with 10% fetal bovine serum. For the glucose, galactose experiments media lacking glucose was supplemented with dialyzed serum and either 10 mM Glucose or 10 mM galactose.
Cell viability—where indicated relative cell number following different drug treatment was conducted by plating cells at 1000 cells/well in 384 well plates. Indicated concentrations of compounds were added 24 hour after plating at least in triplicate for each condition. Viability was measured 72 hours after drug addition using cell titer-glo (Promega) according to manufactures protocol. […]

CC(C)C[C@H](NC(=O)[C@H](Cc1ccccc1)NC(=O)c1cnccn1)B(O)O [bortezomib]
rate of protein degradation (T47D cells): sharply decreased | rate of protein synthesis (T47D cells): sharply decreased | transcriptional response (HepG2 cells): sharp increase in stress-response transcripts

CN(NC(=O)CC(=O)NN(C)C(=S)c1ccccc1)C(=S)c1ccccc1 [elesclomol]
sensitivity of cells in galactose (mitochondrial metabolism, Hi-OXPHOS) versus glucose (glycolytic) (MCF7 and HEK293 cells): much more sensitive; also recorded: toxicity is enhanced

From patent publication US20180353445A1, “METHODS AND COMPOSITIONS RELATING TO PROTEASOME INHIBITOR RESISTANCE” (Whitehead Institute for Biomedical Research, priority 2017, published 2018)
